Tested on: 324938-238-R-J1-PDC complex spheroid growth, % test/control
Test: Anticancer human tumor 324938-238-R-J1-PDC patient-derived bladder carcinoma cell line growth inhibition [AhR]
Conditions: for IC50: curve of first compound; for viability, T/C: stronger effect = lower value
Method in brief: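 Spheroids combined tumor cells with HUVEC endothelial cells and human MSCs as stroma. AhR antagonists were paired with standard or investigational drugs, each dosed in half-log steps down from near clinical Cmax, or from 10 microM where Cmax was unknown.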

[1] = second compound 0.1 µM, first compound 0.000949 µM
[2] = second compound 0.1 µM, first compound 0.003 µM
[3] = second compound 0.1 µM, first compound 0.00949 µM
[4] = second compound 0.1 µM, first compound 0.03 µM
[5] = second compound 0.1 µM, first compound 0.0949 µM
[6] = second compound 0.1 µM, first compound 0.3 µM
[7] = second compound 0.316 µM, first compound 0.000949 µM
[8] = second compound 0.316 µM, first compound 0.003 µM
[9] = second compound 0.316 µM, first compound 0.00949 µM
[10] = second compound 0.316 µM, first compound 0.03 µM
[11] = second compound 0.316 µM, first compound 0.0949 µM
[12] = second compound 0.316 µM, first compound 0.3 µM
[13] = second compound 1 µM, first compound 0.000949 µM
[14] = second compound 1 µM, first compound 0.003 µM
[15] = second compound 1 µM, first compound 0.00949 µM
[16] = second compound 1 µM, first compound 0.03 µM
[17] = second compound 1 µM, first compound 0.0949 µM
[18] = second compound 1 µM, first compound 0.3 µM
[19] = second compound 3.16 µM, first compound 0.000949 µM
[20] = second compound 3.16 µM, first compound 0.003 µM
[21] = second compound 3.16 µM, first compound 0.00949 µM
[22] = second compound 3.16 µM, first compound 0.03 µM
[23] = second compound 3.16 µM, first compound 0.0949 µM
[24] = second compound 3.16 µM, first compound 0.3 µM
[25] = second compound 10 µM, first compound 0.000949 µM
[26] = second compound 10 µM, first compound 0.003 µM
[27] = second compound 10 µM, first compound 0.00949 µM
[28] = second compound 10 µM, first compound 0.03 µM
[29] = second compound 10 µM, first compound 0.0949 µM
[30] = second compound 10 µM, first compound 0.3 µM
[31] = second compound 0.1 µM, first compound 0.0316 µM
[32] = second compound 0.1 µM, first compound 0.1 µM
[33] = second compound 0.1 µM, first compound 0.316 µM
[34] = second compound 0.1 µM, first compound 1 µM
[35] = second compound 0.1 µM, first compound 3.16 µM
[36] = second compound 0.1 µM, first compound 10 µM
[37] = second compound 0.316 µM, first compound 0.0316 µM
[38] = second compound 0.316 µM, first compound 0.1 µM
[39] = second compound 0.316 µM, first compound 0.316 µM
[40] = second compound 0.316 µM, first compound 1 µM
[41] = second compound 0.316 µM, first compound 3.16 µM
[42] = second compound 0.316 µM, first compound 10 µM
[43] = second compound 1 µM, first compound 0.0316 µM
[44] = second compound 1 µM, first compound 0.1 µM
[45] = second compound 1 µM, first compound 0.316 µM
[46] = second compound 1 µM, first compound 1 µM
[47] = second compound 1 µM, first compound 3.16 µM
[48] = second compound 1 µM, first compound 10 µM
[49] = second compound 3.16 µM, first compound 0.0316 µM
[50] = second compound 3.16 µM, first compound 0.1 µM
[51] = second compound 3.16 µM, first compound 0.316 µM
[52] = second compound 3.16 µM, first compound 1 µM
[53] = second compound 3.16 µM, first compound 3.16 µM
[54] = second compound 3.16 µM, first compound 10 µM
[55] = second compound 10 µM, first compound 0.0316 µM
[56] = second compound 10 µM, first compound 0.1 µM
[57] = second compound 10 µM, first compound 0.316 µM
[58] = second compound 10 µM, first compound 1 µM
[59] = second compound 10 µM, first compound 3.16 µM
[60] = second compound 10 µM, first compound 10 µM
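Note: spheroids exposed to agents for seven days before viability read.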

CC(C)CC(NC(=O)C(Cc1ccccc1)NC(=O)c1cnccn1)B(O)O (stereo not given) + Cc1cncc(-c2nc(NCCc3c[nH]c4ccccc34)c3ncn(C(C)C)c3n2)c1
IC50 (second compound 0.1 µM): 0.00475 µM
IC50 (second compound 0.316 µM): 0.00416 µM
IC50 (second compound 1 µM): 0.00421 µM
IC50 (second compound 3.16 µM): 0.00441 µM
IC50 (second compound 10 µM): < 0.000949 µM
viability, T/C [1]: 140%
viability, T/C [2]: 82.9%
viability, T/C [3]: 0.38%
viability, T/C [4]: 0.6%
viability, T/C [5]: 0.37%
viability, T/C [6]: 0.39%
viability, T/C [7]: 123%
viability, T/C [8]: 69.4%
viability, T/C [9]: 0.83%
viability, T/C [10]: 2.26%
viability, T/C [11]: 1.05%
viability, T/C [12]: 0.73%
viability, T/C [13]: 107%
viability, T/C [14]: 70.6%
viability, T/C [15]: 0.67%
viability, T/C [16]: 0.27%
viability, T/C [17]: 0.57%
viability, T/C [18]: 0.35%
viability, T/C [19]: 109%
viability, T/C [20]: 74.3%
viability, T/C [21]: 1.45%
viability, T/C [22]: 0.48%
viability, T/C [23]: 0.28%
viability, T/C [24]: 0.4%
viability, T/C [25]: 5.75%
viability, T/C [26]: 2.91%
viability, T/C [27]: 1.36%
viability, T/C [28]: 0.48%
viability, T/C [29]: 0.49%
viability, T/C [30]: 0.42%

CCc1c2c(nc3ccc(O)cc13)-c1cc3c(c(=O)n1C2)COC(=O)[C@]3(O)CC + Cc1cncc(-c2nc(NCCc3c[nH]c4ccccc34)c3ncn(C(C)C)c3n2)c1
IC50 (second compound 0.1 µM): > 0.3 µM
IC50 (second compound 0.316 µM): > 0.3 µM
IC50 (second compound 1 µM): > 0.3 µM
IC50 (second compound 3.16 µM): 0.204 µM
IC50 (second compound 10 µM): < 0.000949 µM
viability, T/C [1]: 89.1%
viability, T/C [2]: 71.7%
viability, T/C [3]: 91.8%
viability, T/C [4]: 65.7%
viability, T/C [5]: 83.1%
viability, T/C [6]: 80.9%
viability, T/C [7]: 82.3%
viability, T/C [8]: 81.9%
viability, T/C [9]: 102%
viability, T/C [10]: 97.3%
viability, T/C [11]: 63.5%
viability, T/C [12]: 61.4%
viability, T/C [13]: 88.5%
viability, T/C [14]: 71.3%
viability, T/C [15]: 93.6%
viability, T/C [16]: 76%
viability, T/C [17]: 73.9%
viability, T/C [18]: 70.3%
viability, T/C [19]: 71.7%
viability, T/C [20]: 95.7%
viability, T/C [21]: 91.7%
viability, T/C [22]: 79.3%
viability, T/C [23]: 55.4%
viability, T/C [24]: 47.2%
viability, T/C [25]: 2.77%
viability, T/C [26]: 3.5%
viability, T/C [27]: 8.95%
viability, T/C [28]: 6.69%
viability, T/C [29]: 10.2%
viability, T/C [30]: 10.6%

COc1cc(Nc2ncc3c(n2)-c2ccc(Cl)cc2C(c2c(F)cccc2OC)=NC3)ccc1C(=O)O + Cc1cncc(-c2nc(NCCc3c[nH]c4ccccc34)c3ncn(C(C)C)c3n2)c1
IC50 (second compound 0.1 µM): > 10 µM
IC50 (second compound 0.316 µM): > 10 µM
IC50 (second compound 1 µM): > 10 µM
IC50 (second compound 3.16 µM): > 10 µM
IC50 (second compound 10 µM): < 0.0316 µM
viability, T/C [31]: 116%
viability, T/C [32]: 130%
viability, T/C [33]: 149%
viability, T/C [34]: 91.1%
viability, T/C [35]: 127%
viability, T/C [36]: 108%
viability, T/C [37]: 91.2%
viability, T/C [38]: 137%
viability, T/C [39]: 104%
viability, T/C [40]: 87.1%
viability, T/C [41]: 93.4%
viability, T/C [42]: 65%
viability, T/C [43]: 88.9%
viability, T/C [44]: 127%
viability, T/C [45]: 98.2%
viability, T/C [46]: 107%
viability, T/C [47]: 76%
viability, T/C [48]: 80.4%
viability, T/C [49]: 97.5%
viability, T/C [50]: 131%
viability, T/C [51]: 121%
viability, T/C [52]: 96.2%
viability, T/C [53]: 82.7%
viability, T/C [54]: 84.5%
viability, T/C [55]: 17.1%
viability, T/C [56]: 14.8%
viability, T/C [57]: 18.8%
viability, T/C [58]: 15%
viability, T/C [59]: 19.1%
viability, T/C [60]: 25.6%

Nc1ccccc1NC(=O)c1ccc(CNC(=O)OCc2cccnc2)cc1 + Cc1cncc(-c2nc(NCCc3c[nH]c4ccccc34)c3ncn(C(C)C)c3n2)c1
IC50 (second compound 0.1 µM): 1.74 µM
IC50 (second compound 0.316 µM): 4.61 µM
IC50 (second compound 1 µM): 3.44 µM
IC50 (second compound 3.16 µM): 4.1 µM
IC50 (second compound 10 µM): < 0.0316 µM
viability, T/C [31]: 87.7%
viability, T/C [32]: 91%
viability, T/C [33]: 97.5%
viability, T/C [34]: 48.9%
viability, T/C [35]: 43.2%
viability, T/C [36]: 6.54%
viability, T/C [37]: 67.6%
viability, T/C [38]: 104%
viability, T/C [39]: 79.5%
viability, T/C [40]: 83.4%
viability, T/C [41]: 72.2%
viability, T/C [42]: 4.51%
viability, T/C [43]: 105%
viability, T/C [44]: 89.6%
viability, T/C [45]: 79.8%
viability, T/C [46]: 78.5%
viability, T/C [47]: 57.8%
viability, T/C [48]: 3.52%
viability, T/C [49]: 64.2%
viability, T/C [50]: 61%
viability, T/C [51]: 62.3%
viability, T/C [52]: 65.3%
viability, T/C [53]: 68.1%
viability, T/C [54]: 1.13%
viability, T/C [55]: 2.83%
viability, T/C [56]: 3.36%
viability, T/C [57]: 4.55%
viability, T/C [58]: 1.45%
viability, T/C [59]: 6%
viability, T/C [60]: 0.4%

O=C(C=Cc1cccc(S(=O)(=O)Nc2ccccc2)c1)NO + Cc1cncc(-c2nc(NCCc3c[nH]c4ccccc34)c3ncn(C(C)C)c3n2)c1
IC50 (second compound 0.1 µM): 3.65 µM
IC50 (second compound 0.316 µM): 3.63 µM
IC50 (second compound 1 µM): 3.03 µM
IC50 (second compound 3.16 µM): 3.75 µM
IC50 (second compound 10 µM): < 0.0316 µM
viability, T/C [31]: 121%
viability, T/C [32]: 130%
viability, T/C [33]: 95.4%
viability, T/C [34]: 104%
viability, T/C [35]: 53.5%
viability, T/C [36]: 1.77%
viability, T/C [37]: 101%
viability, T/C [38]: 106%
viability, T/C [39]: 95.3%
viability, T/C [40]: 92.7%
viability, T/C [41]: 56.2%
viability, T/C [42]: 2.06%
viability, T/C [43]: 112%
viability, T/C [44]: 122%
viability, T/C [45]: 96.5%
viability, T/C [46]: 95.2%
viability, T/C [47]: 46.6%
viability, T/C [48]: 3.32%
viability, T/C [49]: 133%
viability, T/C [50]: 109%
viability, T/C [51]: 125%
viability, T/C [52]: 87.7%
viability, T/C [53]: 60%
viability, T/C [54]: 0.96%
viability, T/C [55]: 9.41%
viability, T/C [56]: 28.3%
viability, T/C [57]: 40%
viability, T/C [58]: 63%
viability, T/C [59]: 61.8%
viability, T/C [60]: 0.41%

O=C(c1cc(Cc2n[nH]c(=O)c3ccccc23)ccc1F)N1CCN(C(=O)C2CC2)CC1 + Cc1cncc(-c2nc(NCCc3c[nH]c4ccccc34)c3ncn(C(C)C)c3n2)c1
IC50 (second compound 0.1 µM): > 10 µM
IC50 (second compound 0.316 µM): > 10 µM
IC50 (second compound 1 µM): > 10 µM
IC50 (second compound 3.16 µM): > 10 µM
IC50 (second compound 10 µM): < 0.0316 µM
viability, T/C [31]: 106%
viability, T/C [32]: 96.6%
viability, T/C [33]: 78.3%
viability, T/C [34]: 71.6%
viability, T/C [35]: 72.5%
viability, T/C [36]: 79.5%
viability, T/C [37]: 97.2%
viability, T/C [38]: 115%
viability, T/C [39]: 105%
viability, T/C [40]: 97.2%
viability, T/C [41]: 92.3%
viability, T/C [42]: 74.4%
viability, T/C [43]: 78.4%
viability, T/C [44]: 106%
viability, T/C [45]: 91%
viability, T/C [46]: 61.5%
viability, T/C [47]: 72%
viability, T/C [48]: 59.6%
viability, T/C [49]: 78.4%
viability, T/C [50]: 66.2%
viability, T/C [51]: 84.3%
viability, T/C [52]: 68.2%
viability, T/C [53]: 77.7%
viability, T/C [54]: 67.6%
viability, T/C [55]: 5.77%
viability, T/C [56]: 4.45%
viability, T/C [57]: 2.26%
viability, T/C [58]: 4.78%
viability, T/C [59]: 4.97%
viability, T/C [60]: 8.77%

Source: PubChem BioAssay AID1918995 (Molecular Pharmacology Branch, DTP, NCI, 2023)
